According to ChEMBL document CHEMBL1142213, “Mechanism of antimalarial action of the synthetic trioxolane RBX11160 (OZ277)” (Antimicrob Agents Chemother, 2007):
pIC50, pKi: −log10 of the molar value. Activity calls are given as the source filed them. The rule behind the calls is not given here.

Key:
[1] = Inhibition of Plasmodium berghei SERCA
[2] = Inhibition of Plasmodium falciparum ATP6 expressed in Xenopus laevis oocytes; assay type: cell-based; settings: oocyte
Oocyte [3] = assay: Inhibition of Plasmodium falciparum HT expressed in Xenopus laevis oocytes assessed as D-[U-14C]glucose uptake at 50 uM; assay type: cell-based
Oocyte [4] = assay: Abrogation of Plasmodium falciparum ATP6 inhibition expressed in Xenopus laevis oocytes at 10 uM in presence of 100 uM desferioxamine; assay type: cell-based
Oocyte [5] = assay: Inhibition of Plasmodium falciparum ATP6 expressed in Xenopus laevis oocytes at 50 uM; assay type: cell-based
Oryctolagus cuniculus [6] = organism: Oryctolagus cuniculus; assay: Inhibition of rabbit muscle SERCA at 100 uM
Plasmodium falciparum = assay: Antimalarial activity against Plasmodium falciparum NF54 within 48 hrs; assay type: functional, organism-based; settings: NF54, 48 h
Oryctolagus cuniculus [7] = organism: Oryctolagus cuniculus; assay: Inhibition of rabbit muscle SERCA at 10 uM

SMILES | pKi [1] | pKi [2] | Activity (Oocyte [3]) | Activity (Oocyte [4]) | Activity (Oocyte [5]) | inhibition (Oryctolagus cuniculus [6]) [%] | pIC50 (Plasmodium falciparum) | inhibition (Oryctolagus cuniculus [7]) [%]
C[C@@H]1CC[C@H]2[C@@H](C)C(=O)O[C@@H]3O[C@@]4(C)CC[C@@H]1[C@]32OO4 [ARTEMISININ] | 5.22 | 7.10 | – | – | – | – | – | –
CC(C)(N)CNC(=O)C[C@H]1CC[C@@]2(CC1)OOC1(O2)C2CC3CC(C2)CC1C3 (some centres undefined) | – | 5.11 | inactive | inactive | Active | 50 | 8.80 | –
C/C=C(/C)C(=O)O[C@H]1C(C)=C2[C@H]([C@@H]1OC(=O)CCCCCCC)[C@@](C)(OC(C)=O)C[C@H](OC(=O)CCC)[C@@]1(O)[C@H]2OC(=O)[C@@]1(C)O | – | – | – | – | – | – | – | 75
